Experimental data as given in patent US7230002B2, “Dipeptidyl peptidase IV inhibitors; processes for their preparation and compositions thereof” (Glenmark Pharmaceuticals Ltd., priority 2004, dated 2007).
pIC50: −log10 of the molar value. Structures can show the parent of a compound that is named as a salt.

Target: T1, human recombinant Dipeptidyl peptidase IV enzyme (Homo sapiens, UniProt P27487)
T1 construct: purchased R & D Systems
Experiment: In-vitro DPP-IV assay (cleavage of Gly-Pro-AMC)
Type: biochemical
Conditions: for pIC50: n = 3, substrate Gly-Pro-AMC, 30° C., 30 minutes, read-out: DPP-IV inhibition IC50
Experimental: Protocol for In-Vitro DPP-IV Assay
DPPIV activity was determined by the cleavage rate of 7-amino-4-methyl coumarin (AMC) from synthetic substrate Glycyl-Prolyl-AMC. In brief, the assay was conducted by adding 10 ng of human recombinant Dipeptidyl peptidase IV enzyme (DPPIV, available commercially from R & D Systems) in 50 μl of the assay buffer (25 mM Tris, pH 7.4, 140 mM NaCl, 10 mM KCl, 1% BSA) to 96 well black flat bottom microtiter plates. The reaction was initiated by adding 50 μl of 100 μM substrate Gly-Pro-AMC. The incubation was carried out in the kinetic mode at 30° C. for 30 minutes. Fluorescence was measured using Fluorostar at excitation filter of 380 nm and emission filter of 460 nm). Test compounds and solvent controls were added as 1 μl additions. A standard curve of free amino methyl coumarin (AMC) was generated using 0–100 μM AMC in the assay buffer. The curve generated, which was linear was used for the interpolation of catalytic activity.
Test compounds dissolved in DMSO at 5–6 concentrations were tested in duplicate along with the solvent control and blank samples. Percent inhibition was calculated at each concentration with respect to the solvent control sample (no test compound added). IC50 values were calculated from 3 experiments using the prism software.

T1 sequence (P27487 whole entry): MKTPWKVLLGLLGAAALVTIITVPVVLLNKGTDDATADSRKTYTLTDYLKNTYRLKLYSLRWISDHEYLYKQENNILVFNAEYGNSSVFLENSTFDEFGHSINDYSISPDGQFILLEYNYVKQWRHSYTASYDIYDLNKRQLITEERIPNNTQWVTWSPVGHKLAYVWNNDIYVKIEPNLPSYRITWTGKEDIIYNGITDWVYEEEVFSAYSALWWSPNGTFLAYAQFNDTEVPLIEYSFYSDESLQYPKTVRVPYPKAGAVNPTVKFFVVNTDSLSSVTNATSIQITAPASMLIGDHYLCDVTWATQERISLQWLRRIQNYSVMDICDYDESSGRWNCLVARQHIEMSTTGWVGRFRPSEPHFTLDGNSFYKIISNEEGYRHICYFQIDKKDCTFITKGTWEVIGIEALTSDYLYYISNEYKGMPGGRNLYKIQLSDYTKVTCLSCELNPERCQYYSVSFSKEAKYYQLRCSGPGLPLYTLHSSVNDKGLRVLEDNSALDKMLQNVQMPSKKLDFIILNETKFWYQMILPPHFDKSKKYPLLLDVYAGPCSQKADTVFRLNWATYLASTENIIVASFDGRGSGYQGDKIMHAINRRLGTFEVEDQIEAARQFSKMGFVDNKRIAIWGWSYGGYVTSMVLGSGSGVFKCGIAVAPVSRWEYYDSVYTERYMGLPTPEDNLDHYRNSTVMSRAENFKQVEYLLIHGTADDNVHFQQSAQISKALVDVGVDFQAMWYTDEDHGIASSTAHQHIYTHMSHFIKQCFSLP

| Structure (SMILES) | pIC50 | inhibition at 0.3 µM (at 300 nM, n = 3, read-out: DPP-IV inhibition, percent inhibition at 300 nM) |
| --- | --- | --- |
| N#C[C@@H]1CCCN1C(=O)CN[C@H]1CC[C@@H](CS(=O)(=O)c2ccccc2)C1 [Example-33, (2S)-1-{2-[(1S,3R)-3-Phenylsulfonylmethylcyclopentylamino]acetyl}-pyrrolidine-2-carbonitrile] | 7.24 | – |
| N#C[C@@H]1CCCN1C(=O)CN[C@H]1C=C[C@@H](CSc2ccccn2)C1 [Example-35, (2S)-1-{2-[(4S,1R)-4-(2-Pyridylsulfanylmethyl)cyclopent-2-enealino]acetyl}-pyrrolidine-2-carbonitrile] | 7.15 | – |
| N#C[C@@H]1CCCN1C(=O)CN[C@H]1CC[C@@H](CSc2ccccn2)C1 [Example-36, (2S)-1-{2-[(1S,3R)-3-(2-Pyridylsulfanylmethyl)cyclopentylamino]acetyl}-pyrrolidine-2-carbonitrile] | 7.98 | – |
| N#C[C@@H]1CCCN1C(=O)CN[C@@H]1CC[C@H](COc2ccc([N+](=O)[O-])cc2)C1 [Example-44, (2S)-1-{2-[(3S,1R)-3-(4-Nitrophenoxymethyl)cyclopentylamino]acetyl}-pyrrolidine-2-carbonitrile] | 7.59 | – |
| N#C[C@@H]1CCCN1C(=O)CN[C@H]1CC[C@@H](COc2ccc([N+](=O)[O-])cc2)C1 [Example-45, (2S)-1-{2-[(3R,1S)-3-(4-Nitrophenoxymethyl)cyclopentylamino]acetyl}-pyrrolidine-2-carbonitrile] | 7.30 | – |
| N#Cc1ccc(OC[C@H]2CC[C@@H](NCC(=O)N3C[C@@H](F)C[C@H]3C#N)C2)cc1F [Example-50, (2S,4S)-1-{2-[(3S,1R)-3-(4-Cyano-3-fluorophenoxymethyl)cyclopentylamino]acetyl}-4-fluoro-pyrrolidine-2-carbonitrile] | 8.59 | – |
| N#Cc1ccc(OC[C@H]2CC[C@@H](NCC(=O)N3CCC[C@H]3C#N)C2)c2oc3ccccc3c12 [Example-51, (2S)-1-{2-[(3S,1R)-3-(1-Cyanodibenzo[b,d]furan-4-yloxymethyl)cyclopentylamino]-acetyl}-pyrrolidine-2-carbonitrile] | – | 25% |

The next lines start with the values.

| pIC50 | inhibition at 0.3 µM (at 300 nM, n = 3, read-out: DPP-IV inhibition, percent inhibition at 300 nM) | Structure (SMILES) |
| --- | --- | --- |
| 7.04 | – | N#C[C@@H]1CCCN1C(=O)CN[C@@H]1CC[C@H](CS(=O)(=O)c2ccccc2)C1 [Example-31, (2S)-1-{2-[(3S,1R)-3-Phenylsulfonylmethylcyclopentylamino]acetytl}-pyrrolidine-2-carbonitrile] |
| 7.43 | – | N#C[C@@H]1CCCN1C(=O)CN[C@H]1CC[C@@H](CSc2ccccc2)C1 [Example-32, (2S)-1-{2-[(1S,3R)-3-Phenylsulfanylmethylcycopentylamino]acetyl}-pyrrolidine-2-carbonitrile] |
| 7.58 | – | N#C[C@@H]1CCCN1C(=O)CN[C@H]1CC[C@@H](CSc2ccc(F)cc2)C1 [Example-34, (2S)-1-{2-[(1S,3R)-3-(4-Fluorophenylsulfanylmethyl)cyclopentylamino]acetyl}-pyrro-lidine-2-carbonitrile] |
| 7.18 | – | N#C[C@@H]1CCCN1C(=O)CN[C@H]1CC[C@@H](CS(=O)(=O)c2ccccn2)C1 [Example-37, (2S)-1-{2-[(1S,3R)-3-(2-Pyridylsulfonylmethyl)cyclopentylamino]acetyl}-pyrrolidine-2-carbonitrile] |
| 7.80 | – | N#C[C@@H]1CCCN1C(=O)CN[C@@H]1CC[C@H](CSc2ncccn2)C1 [Example-41, (2S)-1-{2-[(3S,1R)-3-(2-Pyrimidinylsulfanylmethyl)cyclopentylamino]acetyl}-pyrrol-idine-2-carbonitrile] |
| 7.57 | – | N#C[C@@H]1CCCN1C(=O)CN[C@@H]1CC[C@H](CSc2nc3ccccc3[nH]2)C1 [Example-42, (2S)-1-{2-[(3S,1R)-3-(1H-Benzo[d]imidazol-2-ylsulfanylmethyl)cyclopentylamino]-acetyl}-pyrrolidine-2-carbonitrile] |
| 7.93 | – | N#Cc1ccc(OC[C@@H]2CC[C@H](NCC(=O)N3CCC[C@H]3C#N)C2)cc1 [Example-46] |
| 7.86 | – | N#Cc1ccc(OC[C@H]2CC[C@@H](NCC(=O)N3CCC[C@H]3C#N)C2)cc1 [Example-47, (2S)-1-{2-[(3S,1R)-3-(4-Cyanophenoxymethyl)cyclopentylamino]acetyl}-pyrrolidine-2-carbonitrile] |
| 7.87 | – | N#Cc1ccc(OC[C@H]2CC[C@@H](NCC(=O)N3CCC[C@H]3C#N)C2)cc1 [Example-48, (2S)-1-{2-[(3S,1R)-3-(4-Cyanophenoxymethyl)cyclopentylamino]acetyl}-pyrrolidine-2-carbonitrile hydrochloride] |
| 7.63 | – | N#Cc1ccc(OC[C@H]2CC[C@@H](NCC(=O)N3CCC[C@H]3C#N)C2)cc1F [Example-49, (2S)-1-{2-[(3S,1R)-3-(4-Cyano-3-fluorophenoxymethyl)cyclopentylamino]acetyl}-pyrrolidine-2-carbonitrile] |
